Data taken from US20240085403A1, “METHOD FOR INHIBITING ADVENTITIOUS VIRAL INFECTION” (Allogene Therapeutics, Inc., priority 2022, published 2024).
pEC50: −log10 of the molar value.

Tests used:
HHV-6 [1] = conditions: in vitro anti-HHV-6 activity, literature; read-out: EC50 (Reyman 1995); cited from earlier work
[2] = system: PBMCs with integrate HHV-6 genomes (iciHHV6); type: cell-based, human
Source text: (§1) We next examined the effects of other known antiviral agents on controlling HHV-6 reactivation using PBMCs with integrate HHV-6 genomes (iciHHV6) to mimic continuous low levels of HHV-6 infection. Ganciclovir, cidofovir and foscarnet are all small molecule inhibitors of HHV viral DNA polymerase. Artesunate is a small molecule antiviral agent targeting HHV immediate early genes. […] See e.g., hhv-6foundation.org/research/hhv-6-antiviral-drug-resistance; Reyman et al., 1995, Antiviral Res. 28:343-57; and Vittayawacharin et al., 2023, Transplant Cell Ther. 29:397. The cells were cultured in X-vivo supplemented media for three days before being split into 4 subcultures. Afterwards, cells were cultured for 15 additional days, with media exchange twice a week, each time containing a fresh dose of the same antiviral agent at the same initial concentration. Cell sampling was taken on different days after the antiviral agent was first added. The effect of the antiviral agent on the viability of cells were analyzed by using a cellular apoptosis screening kit (Thermo Cat #V13242),.

HHV-6 [3] = assay: HHV-6 U65 gene copies by qPCR in iciHHV6 PBMCs treated with antiviral agents; type: cell-based, Human herpesvirus 6; conditions: 15 days culture, concentrations of Table 2
Source text: as §1
Next, HHV-6 replication was analyzed by detecting copies of HHV-6 gene U65 by qPCR.
(§2) Genomic DNA was extracted from cells and DNA levels of HHV-6 were determined by quantitative PCR (qPCR). The experiment was carried out using the ThermoFisher Scientific, TaqMan™ Fast Virus 1-Step Master Mix, (Catalog number: 4444434).

HHV-6B (strain Z-29) [4] = assay: Small-scale CAR T process with HHV-6B infection, viral RNA (U79, U90, U100) by RT-qPCR; type: cell-based, human herpesvirus 6B (strain Z-29)
Source text: (§3) HHV-6 reactivation from PBMC is an extremely rare event in CAR T manufacturing based on existing data. To investigate the feasibility of using IFNα in controlling HHV-6 infectivity, we designed experiments to test the effects of IFNα in the manufacturing process by deliberately introducing active HHV-6 infection. In brief, the PBMCs from two different donors were thawed from frozen storage and cultured in complete media (5% HS+X-vivo+Supplements) for activation and LVV transduction. After electroporation of cells with TALEN mRNA, the T cells were infected with HHV-6B (strain Z-29) at MOI=0.4 for 3 hrs, then transferred to the G-Rex bioreactor for expansion for 10 days (Day 8 to Day 18). IFNα was added into the complete media at different concentrations (100 ng/mL, 10 ng/mL, 1 ng/mL and 0.1 ng/mL) on D8 after the 3 hrs of HHV-6 infection and kept in culture until the end of the expansion period. Cell samples were collected on D11, D13, D15 and D18, i.e., three, five, seven, and ten days post infection, to determine the HHV-6 virus infectivity by RT-qPCR assay (FIG. 4B), flow cytometry detection (FIG. 4C), and qPCR assay (FIG. 4D). […]
Total RNA was extracted from cells and analyzed using reverse transcription qPCR (RT-qPCR) assay for U79, U90, U100 and GAPDH genes to determine HHV-6 infectivity.

HHV-6 viral antigen p41 = assay: Small-scale CAR T process with HHV-6B infection, p41 viral antigen by flow cytometry; type: cell-based, human herpesvirus 6B (strain Z-29); conditions: IFNα 0.1 ng/mL, D18, both donors
Source text: as §3
HHV6 infectivity was determined by intracellular staining using antibody against HHV-6 p41 protein at 1 μg/mL and FACS analysis was performed to determine the percent of cells expressing the viral protein.

HHV-6B in CEM-HHV6 cells = assay: CEM-HHV6 latency/reactivation model, HHV-6 qPCR after sodium butyrate and PMA reactivation; type: cell-based, human herpesvirus 6B (strain Z-29)
Procedure: We next tested whether viral reactivation can be induced in the latency cell culture model. CEM-HHV6 cells (1×10^7) were reactivated using 100 ng/mL of PMA (phorbol-12-myristate-13-acetate, Cat #500582 Millipore-Sigma) and 1 mM NaButyrate (Cat #19-137, Millipore-Sigma) final concentration for 2 days at 37° C. On day 2 cells were washed and resuspended in RPMI+5% FBS and cultured for 18 days. Media was replenished as needed. CEM-HHV6 cells were collected on days 5, 8, 12, 14, 16, and 19 post-reactivation. HHV-6B viral reactivation was assessed by qPCR analysis of the vgDNA of HHV-6B targeting the U31 and U65-66 genes. Untreated CEM-HHV6 cells were used as a negative control.
The CEM-HHV6 reactivation model described in FIGS. 2A-F was utilized for testing the effects of IFNα in the cell culture model, similar to the testing carried out in DP (FIG. 1A). CEM-HHV6 cells were initially cultured in bulk before the start of the experiment. One day before the start of the experiment (D-1), an aliquot of the CEM-HHV6 cells was taken out and split before treatment with one of three IFNα concentrations (100 ng/mL, 1 ng/mL and 0.01 ng/mL), which constituted the “pre-treatment” of IFNα. Cells were collected from the beginning of the experiment (D0) and continuing every few days throughout. […]

HHV-6B (strain Z-29) [5] = assay: Small-scale CAR T process with HHV-6B infection, U31 DNA by qPCR; type: cell-based, human herpesvirus 6B (strain Z-29); conditions: IFNα 0.1 ng/mL, process D18
Source text: as §3, with “4D). Description of RT-qPCR assay, flow cytometry, and genomic DNA qPCR assay are shown in Materials & Methods.” for “4D).”
Genomic DNA was extracted from cells and DNA levels of HHV-6 were determined by quantitative PCR (qPCR). […]

HHV-6 [6] = assay: Timing of IFNα addition before HHV-6 infection, U100 and U79 transcripts by RT-qPCR; type: cell-based, Human herpesvirus 6
Procedure: To mimic the rare reactivation event, PBMC-derived CAR T cells were infected with exogenous HHV-6 at an MOI of 0.4 on Day 8 of the small scale manufacturing process. Cells were treated with IFNα at a concentration of 1 ng/μL or 10 ng/μL on Day 0 (preactivation), Day 1 (activation), Day 4, or Day 6, or untreated throughout the process. All cultures were infected with HHV-6 on Day 8, regardless whether the cells were pre-treated with IFNα or left untreated.
The effects of IFNα on HHV-6 infection were analyzed in cells from two different donors. The transcripts of viral genes U100 (FIGS. 6A and 7A) and U79 (FIGS. 6B and 7B) were analyzed by RT-qPCR at the time points of three, seven and ten days post infection (i.e., on Day 11, Day 15 and Day 18 of the small scale manufacturing process). The y-axis reprepresents relative-fold change for each value compared to the endogenous GAPDH as well as untreated donor RNA (Day 0 before IFNα treatment).

HHV-6 p41 = assay: Immunofluorescence of HHV-6 p41 protein in CAR T drug product culture; type: cell-based, Human herpesvirus 6
Procedure: To test whether HHV-6 protein expression is affected by IFNα treatment, we performed immunofluorescence using an antibody specific for HHV-6 p41, an HHV-6 early gene product, on cells collected from D4 of the Batch 1 (“HHV-6 high”) DP culture.
The cells were fixed with 4% paraformaldehyde and permeabilized using 0.5% saponin before incubating with HHV6 p41 antibody conjugated with Alexa-488 at 0.2 μg/mL. Cells were stained with DAPI prior to imaging at 20× magnification.

HHV-6 [7] = assay: HHV-6 U31 viral DNA by qPCR in thawed CAR T drug product cultured with IFNα; type: cell-based, Human herpesvirus 6; conditions: both lots of DP (Batch 1 HHV-6 high, Batch 2 low); IFNα 0.01, 1, 100 ng/mL; D1-D7
Source text: Drug product (DP) for experiment was selected based on the results of screening for HHV-6, among other adventitous agents, at the end of cell engineering process. Batch #1 was one of a few rare occurrences of DP with “positive” levels of HHV-6 and was chosen for the following studies (designated as the “HHV-6 high” group), while Batch #2 was chosen as the “low”-level counterpart. DP vials were retrieved from LN2, thawed and each split into 4 day 0 (D0) flasks. We first tested the effects of a type I IFN, such as IFNα, on the replication and infectivity of HHV-6. Flasks received either complete media (X-vivo +5% human serum (HS)+supplements) or complete media with added IFNα (human IFN-α2a at 100 ng/mL, 1 ng/mL and 0.01 ng/mL, Miltenyi). Cells were cultured for 7 additional days (D1-D7), with daily collections of cells from all conditions for freezing. Media was replaced every three days, with or without added IFNα for corresponding flasks.
Post-cell culture, DNA was extracted from the collected samples, and analyzed by qPCR for HHV-6 marker U31 as described in Material & Methods.
as §2

CAR T cells [8] = system: CAR T cells
CAR T cells [9] = assay: CAR T cell expansion, % CAR+ and phenotype under IFNα in the HHV-6 infection model; conditions: IFNα 0.1 ng/mL to 10 ng/mL, added Day 8 to Day 18
HHV-6 [10] = assay: Timing of IFNα addition before HHV-6 infection, viral DNA by qPCR; type: cell-based, Human herpesvirus 6; conditions: data not shown

Compound: C[C@H]1[C@H](OC(=O)CCC(=O)O)O[C@@H]2O[C@@]3(C)CC[C@H]4[C@H](C)CC[C@@H]1[C@@]24OO3 [Artesunate]
- pEC50 (HHV-6 [1]): 5.42
- cell health / apoptosis [2]: induced higher level of apoptosis
- HHV-6 levels (U65 gene copies by qPCR) (HHV-6 [3]): increased HHV-6 levels over the culture period

Compound: Nc1ccn(C[C@@H](CO)OCP(=O)(O)O)c(=O)n1 [Cidofovir, cidofovir]
- pEC50 (HHV-6 [1]): 4.82 to 4.92
- cell health / apoptosis [2]: induced higher level of apoptosis
- HHV-6 levels (U65 gene copies by qPCR) (HHV-6 [3]): increased HHV-6 levels over the culture period

Compound: O=C(O)P(=O)(O)O [Foscarnet, foscarnet]
- pEC50 (HHV-6 [1]): 5.08
- cell health / apoptosis [2]: did not negatively affect cell health
- HHV-6 levels (U65 gene copies by qPCR) (HHV-6 [3]): maintain the HHV-6 levels at around their starting level

Compound: Nc1nc2c(ncn2COC(CO)CO)c(=O)[nH]1 [Ganciclovir, ganciclovir]
- pEC50 (HHV-6 [1]): < 4.60
- cell health / apoptosis [2]: did not negatively affect cell health
- HHV-6 levels (U65 gene copies by qPCR) (HHV-6 [3]): decreased viral load initially followed by an increase at later time points

Compound: IFNα: human IFN-α2a (Miltenyi), a type I IFN; exemplary sequence SEQ ID NO: 19/20
- HHV-6 viral RNA (HHV-6B (strain Z-29) [4]; IFNα 10 ng/mL, D18): below detectable levels
- HHV-6 RNA levels (U79, U90, U100) (HHV-6B (strain Z-29) [4]; donor #1, lowest concentration of IFNα, D11 to D18): decreased from D11 to D18
- HHV-6 viral antigen p41 expression (HHV-6 viral antigen p41): effectively reduced
- viral DNA, reactivated (RA) versus non-reactivated (NRA) samples (HHV-6B in CEM-HHV6 cells; IFNα 100 ng/mL): virtually no distinction between the NRA and the RA samples
- level of viral growth (HHV-6 DNA qPCR) (HHV-6B in CEM-HHV6 cells; as the IFNα dosage increased (0.01, 1, 100 ng/mL), pre- or post-treatment): the level of viral growth was reduced
- decrease of HHV-6 DNA levels (U31) (HHV-6B (strain Z-29) [5]): 16 to 38 fold
- U79 transcript (HHV-6 [6]; IFNα added on Day 4 or Day 6 (samples C5-C8)): decreased transcript
- U100 transcript level (HHV-6 [6]; IFNα added on Day 6 (conditions C7, C8; 10 and 1 ng/μL), infection Day 8, compared to C9): greatest reduction of U100 transcript level
- cells positive for HHV-6 p41 (immunofluorescence) (HHV-6 p41; Batch 1 (HHV-6 high) DP culture, D4, increasing concentration of IFNα): fewer cells positive for HHV-6 p41
- cells positive for HHV-6 p41 (immunofluorescence) (HHV-6 p41; batch 2 (HHV-6 low) culture, D4, regardless of concentration used, data not shown): no detectable HHV-6 p41 positive cells
- HHV-6 viral DNA (U31) fold-change relative to D0 (HHV-6 [7]): reduction in the viral load compared to the control
- proliferation of CAR-T cells (CAR T cells [8]): could suppress the proliferation
- fold of CAR T cell expansion (CAR T cells [9]): did not significantly affect
- viral load as determined by qPCR (HHV-6 [10]; IFNα added on Day 6 (C7, C8)): lowest level of viral load
- suppression of HHV-6 infection (U31 DNA qPCR) (HHV-6 [10]; doses of IFNα added closer to infection): strongest suppression effect
